Measured values from patent publication US20040033901A1, “Uses for cellulose-containing aggregates” (priority 1994, published 2004).

Tested on: termites
Assay: field test of termite attack on a weighted board on a one inch bed of aggregates
Assay type: in vivo
Conditions: one inch thick bed on ground surface in termite-infested area, after one year
Text: In a field test, a one inch thick bed of aggregates containing either 0.1% Deltamethrin, 0.001% Deltamethrin, or no Deltamethrin were positioned on ground surface in an area known to be infested with termites and a weighted board was positioned on the top of the bed. […] Thus, at least for Deltamethrin, a toxin level of 0.001 wt % appears both effective and long lived.

CC1(C)[C@H](C(=O)O[C@H](C#N)c2cccc(Oc3ccccc3)c2)[C@@H]1C=C(Br)Br [Deltamethrin]
protection of board from termite attack (aggregates containing 0.001% Deltamethrin): totally protected | protection of board from termite attack (aggregates containing 0.1% Deltamethrin): totally protected
